Source: patent publication US20220047567A1, “METHODS FOR THE TREATMENT OF NEUROFIBROMATOSIS” (INSERM (INSTITUT NATIONAL DE LA SANTÉ ET DE LA RECHERCHE …, priority 2018, published 2022)
“Also recorded” adds a separate entry of the source.

Experiments:
[1] = tested on: PIK3CA pathway (phosphorylation of AKT and S6RP) in NF1−/− cells; assay: Western blot of AKT and S6RP phosphorylation in immortalized NF1−/− cells; assay type: cell-based; conditions: after 12 h of exposure
Excerpt: (§1) FIG. 1: NF1+/+ and NF1−/− cells were exposed to either DMSO, BYL719 at different concentrations […], selumetinib at different concentrations (1 and 10 mmol·L−1) or a combination of BYL719 1 mmol·L−1 and selumetinib 10 mmol·L−1 or BYL719 1 mmol·L−1 and selumetinib 10 mmol·L−1 and IPA3. […] The addition of BYL719 to either selumetinib or selumetinib and IPA3 increases cells apoptosis. All data are shown as the means±s.e.m. ANOVA followed by Tukey-Kramer test. White column: NF1+/+, black column: NF1−/−.
(§2) Inventors first checked in immortalized NF1−/− cells if the PIK3CA pathway was recruited (FIGS. 1A, 1B and 1C). […] They then treated the cells with BYL719. […] They then exposed the NF1−/− cells to different dose of selumetinib, a MAP kinase inhibitor, drug that gave encouraging results in some patients with neurofibromatosis.

NF1−/− cells = assay: Apoptosis assessed by PARP cleavage in NF1−/− cells; assay type: cell-based; conditions: different doses, FIG. 1C
Excerpt: as §1, §2

In the case of `Cc1nc(NC(=O)N2CCC[C@H]2C(N)=O)sc1-c1ccnc(C(C)(C)C(F)(F)F)c1` [BYL719], the “phosphorylation of AKT” value ([1]; FIG. 1A) is reported as “efficiently blocks; also recorded: efficiently blocking”, the “phosphorylation of S6RP” value ([1]; FIG. 1B) is reported as “efficiently blocks; also recorded: efficiently blocking” and the “apoptosis as assessed by PARP cleavage” value (NF1−/− cells) is reported as “induces apoptosis; also recorded: increased apoptosis as assessed by PARP cleavage in a dose dependent manner”.
